{"source": "patent US11752111B2", "about": "“Use of cannabidivarin in the treatment of autism spectrum disorder, associated disorders and schizophrenia” (GW Research Limited, priority 2016, dated 2023)", "key": {"[1]": {"system": "GFAP, CD11b, TNFα expression in the hippocampus", "test": "Neuroinflammation studies, hippocampus protein expression by Western blotting, prenatal VPA model", "format": "in vivo, rat", "description": "At the end of the study, on PND 59, male rats treated with CBDV 20 mg/kg i.p. were sacrificed and the hippocampus was collected 24 hours after the last CBDV injection and stored at −80° C. for evaluation of changes in protein expression of components of the endocannabinoid system (CB1 and CB2 receptors, the endocannabinoid degrading enzymes, FAAH and MAGL and the synthetic enzymes, DAGLα and NAPE-PLD); neuroinflammatory markers (GFAP (astrocytic marker), Iba1 (microglial marker), CD11b (activated microglial marker), TNF-α (proinflammatory cytokine) and iNOS (inflammatory mediator)); synaptic markers (Synaptophysin (synaptic vesicle protein), PSD-95 (post synaptic density protein) and the neurotrophins, BDNF and IGF by Western blotting."}, "Fmr1 KO mice": {"system": "Fmr1 KO mice", "test": "Audiogenic seizure susceptibility, Fmr1 KO (FXS) mice", "format": "in vivo, mouse", "details": "for audiogenic seizures: FXS mice PND21", "description": "(§1) This trait was evaluated in PND21 mice after acute administration of the compounds or its vehicle, 30 min before starting the procedure. To measure audiogenic seizure sensitivity mice were placed individually into a novel environment, a glass cylinder (40 cm high, 16 cm diameter) and allowed to explore for 1 min. Next, a bell (100 dB) was rung for 30 sec and seizure activity scored according to the following scale: no response, 0; wild running, 1; clonic seizure, 2; tonic seizure, 3; status epilepticus/respiratory arrest/death, 4.\n(§2) On postnatal day 21 (PND21) WT and Fmr1 KO mice were injected with CBDV (2, 10, 20 or 100 mg/kg) or vehicle, 30 min before exposure to a bell ring (100 dB). Mice exposed to this noise for 30 sec ceased from their normal exploratory behaviour and reacted with gradually to wild-running, clonic seizure, tonic seizure or death. The maximum response was annotated for each mouse as detailed in Table 2 below. A score was calculated according to the severity of the symptoms as explained in the Methods section."}, "WT mice": {"system": "WT mice", "test": "Audiogenic seizure susceptibility, WT mice", "format": "in vivo, mouse", "details": "WT PND21", "description": "as §1, §2"}, "MeCP2 KO mice": {"system": "MeCP2 KO mice", "test": "Survival in Rett syndrome model", "format": "in vivo, mouse", "description": "CBDV was administered daily at the dose of 2, 20 and 200 mg/kg i.p. starting from PND 28 and the following signs were scored every other day: hindlimb clasping (indication of motor imbalance), tremor, gait (measure of coordination), breathing, mobility and general condition.\nStarting from PND 28, mice received a daily intraperitoneal injection of CBDV (or vehicle) at the dose of 2, 20 and 200 mg/kg. Animals were then scored every other day to evaluate the effect of CBDV treatment on motor symptoms (hindlimb clasping, gait, mobility) as well as neurological signs and general conditions (breathing abnormalities, tremors and general condition) present in MeCP2 knockout (KO) mice."}, "PCP-treated rats": {"system": "PCP-treated rats", "test": "Novel object recognition test, sub-chronic PCP model of schizophrenia", "format": "in vivo, rat", "description": "Female hooded-Lister rats were used for this experiment. Rats were housed in groups of 5 under standard laboratory conditions under a 12 hr light: dark cycle, lights on at 0700 hr. Testing was carried out in the light phase.\nRats were randomly assigned to two treatment groups and treated with vehicle, n=20 (distilled water, i.p.) or Phencyclidine hydrochloride (PCP), n=100 (2 mg/kg, i.p. twice daily for 7-days). PCP was dissolved in distilled water. This was followed by a 7-day wash out period before the rats were tested following acute treatment with CBDV, risperidone or vehicle.\nRisperidone (0.1 mg/kg) was dissolved in a minimum volume of acetic acid, made up to volume with distilled water and pH adjusted to 6 with 0.1M NaOH and administered via the i.p. route in a volume of 1 ml/kg, 60 min prior to testing.\nCBDV at 2, 10 or 20 mg/kg was dissolved in 2:1:17 (Ethanol:Cremofor:Saline 0.9%) and administered via the i.p. route in a volume of 5 ml/kg, 60 min prior to testing.\nRats were allowed to habituate to the empty test box and the behavioural test room environment for 1h on day 1. Prior to behavioural testing on day 2 rats are given a further 3 min habituation.\nFollowing the 3 min habituation period, the rats are given two 3 min trials (T1 and T2) which are separated by a 1 min inter-trial interval in the home cage during which the objects are changed. Behaviour in all trials was recorded on video for subsequent blind scoring.\nIn this trial, the animals are allowed to explore two identical objects (A1 and A2) for 3 min.\nIn this trial, the animals explore a familiar object (A) from T1 and a novel object (B) for 3 min. The familiar object presented during T2 is a duplicate of the object presented in T1 in order to avoid any olfactory trails.\nThe object exploration is defined by animals licking, sniffing or touching the object with the forepaws whilst sniffing, but not leaning against, turning around, standing or sitting on the object. The exploration time (s) of each object (A, B, familiar and novel) in each trial are recorded using two stopwatches and the following factors are calculated:\nDiscrimination index (DI), which is calculated as shown below: […]"}, "[2]": {"details": "FXS (Fmr1 KO) PND21, CBDV 2 mg/kg acute, n = 5"}, "[3]": {"details": "FXS (Fmr1 KO) PND21, CBDV 10 mg/kg acute, n = 5"}, "[4]": {"details": "FXS (Fmr1 KO) PND21, CBDV 20 mg/kg acute, n = 5"}, "[5]": {"details": "FXS (Fmr1 KO) PND21, CBDV 100 mg/kg acute, n = 5"}}, "note": "Entries after “also recorded” stand apart in the source; their conditions may differ. Like-named read-outs stand apart in the source and are kept apart here.", "data": [{"smiles": "C=C(C)[C@@H]1CCC(C)=C[C@H]1c1c(O)cc(CCC)cc1O", "note": "[CBDV, Cannabidivarin]", "values": [{"measurement": "expression of inflammatory markers that were increased (GFAP, CD11b, TNFα) in hippocampus (FIG. 2D)", "setting": "[1]; chronic CBDV 20 mg/kg i.p., male VPA-exposed rats", "value": "completely normalised"}, {"measurement": "expression of inflammatory markers in hippocampus (FIG. 2D)", "setting": "[1]; chronic CBDV, control rats", "value": "no effect"}, {"measurement": "maximum response: No response (number of mice)", "setting": "Fmr1 KO mice", "value": 2}, {"measurement": "maximum response: Clonic seizure (number of mice)", "setting": "Fmr1 KO mice; [2]", "value": 0}, {"measurement": "maximum response: Death (number of mice)", "setting": "Fmr1 KO mice; [2]", "value": 0}, {"measurement": "maximum response: Tonic seizure (number of mice)", "setting": "Fmr1 KO mice; [2]", "value": 2}, {"measurement": "maximum response: Wild running (number of mice)", "setting": "Fmr1 KO mice; [2]", "value": 1}, {"measurement": "maximum response: Clonic seizure (number of mice)", "setting": "Fmr1 KO mice; [3]", "value": 0}, {"measurement": "maximum response: Death (number of mice)", "setting": "Fmr1 KO mice; [3]", "value": 0}, {"measurement": "maximum response: No response (number of mice)", "setting": "Fmr1 KO mice; [3]", "value": 0}, {"measurement": "maximum response: Tonic seizure (number of mice)", "setting": "Fmr1 KO mice; [3]", "value": 2}, {"measurement": "maximum response: Wild running (number of mice)", "setting": "Fmr1 KO mice; [3]", "value": 3}, {"measurement": "maximum response: Clonic seizure (number of mice)", "setting": "Fmr1 KO mice; [4]", "value": 0}, {"measurement": "maximum response: Death (number of mice)", "setting": "Fmr1 KO mice; [4]", "value": 0}, {"measurement": "maximum response: No response (number of mice)", "setting": "Fmr1 KO mice; [4]", "value": 2}, {"measurement": "maximum response: Tonic seizure (number of mice)", "setting": "Fmr1 KO mice; [4]", "value": 2}, {"measurement": "maximum response: Wild running (number of mice)", "setting": "Fmr1 KO mice; [4]", "value": 1}, {"measurement": "maximum response: Clonic seizure (number of mice)", "setting": "Fmr1 KO mice; [5]", "value": 0}, {"measurement": "maximum response: Death (number of mice)", "setting": "Fmr1 KO mice; [5]", "value": 0}, {"measurement": "maximum response: No response (number of mice)", "setting": "Fmr1 KO mice; [5]", "value": 5}, {"measurement": "maximum response: Tonic seizure (number of mice)", "setting": "Fmr1 KO mice; [5]", "value": 0}, {"measurement": "maximum response: Wild running (number of mice)", "setting": "Fmr1 KO mice; [5]", "value": 0}, {"measurement": "audiogenic seizures", "setting": "Fmr1 KO mice; acute 100 mg/kg", "value": "remained seizure free; also recorded: completely eliminate the seizures"}, {"measurement": "audiogenic seizures", "setting": "Fmr1 KO mice; acute lower doses (2, 10, 20 mg/kg)", "value": "experienced seizures of varying severity"}, {"measurement": "maximum response: Clonic seizure (number of mice)", "setting": "WT mice; CBDV 2 mg/kg acute, n = 6", "value": 0}, {"measurement": "maximum response: Death (number of mice)", "setting": "WT mice; CBDV 2 mg/kg acute, n = 6", "value": 0}, {"measurement": "maximum response: Tonic seizure (number of mice)", "setting": "WT mice; CBDV 2 mg/kg acute, n = 6", "value": 0}, {"measurement": "maximum response: Wild running (number of mice)", "setting": "WT mice; CBDV 2 mg/kg acute, n = 6", "value": 0}, {"measurement": "maximum response: Clonic seizure (number of mice)", "setting": "WT mice; CBDV 10 mg/kg acute, n = 5", "value": 0}, {"measurement": "maximum response: Death (number of mice)", "setting": "WT mice; CBDV 10 mg/kg acute, n = 5", "value": 0}, {"measurement": "maximum response: Tonic seizure (number of mice)", "setting": "WT mice; CBDV 10 mg/kg acute, n = 5", "value": 0}, {"measurement": "maximum response: Wild running (number of mice)", "setting": "WT mice; CBDV 10 mg/kg acute, n = 5", "value": 0}, {"measurement": "maximum response: Clonic seizure (number of mice)", "setting": "WT mice; CBDV 20 mg/kg acute, n = 6", "value": 0}, {"measurement": "maximum response: Death (number of mice)", "setting": "WT mice; CBDV 20 mg/kg acute, n = 6", "value": 0}, {"measurement": "maximum response: Tonic seizure (number of mice)", "setting": "WT mice; CBDV 20 mg/kg acute, n = 6", "value": 0}, {"measurement": "maximum response: Wild running (number of mice)", "setting": "WT mice; CBDV 20 mg/kg acute, n = 6", "value": 1}, {"measurement": "maximum response: Clonic seizure (number of mice)", "setting": "WT mice; CBDV 100 mg/kg acute, n = 6", "value": 0}, {"measurement": "maximum response: Death (number of mice)", "setting": "WT mice; CBDV 100 mg/kg acute, n = 6", "value": 0}, {"measurement": "maximum response: Tonic seizure (number of mice)", "setting": "WT mice; CBDV 100 mg/kg acute, n = 6", "value": 0}, {"measurement": "maximum response: Wild running (number of mice)", "setting": "WT mice; CBDV 100 mg/kg acute, n = 6", "value": 0}, {"measurement": "survival rate", "setting": "MeCP2 KO mice; CBDV 200 mg/kg, PND 67, vehicle 25%", "value": 75, "unit": "%"}, {"measurement": "survival measured at PND 67 (FIG. 5)", "setting": "MeCP2 KO mice; all three doses (2, 20, 200 mg/kg)", "value": "increase survival"}, {"measurement": "discrimination index (DI) (FIG. 17)", "setting": "PCP-treated rats; 10 and 20 mg/kg, PCP rats", "value": "statistically significant increase in the DI"}, {"measurement": "time spent investigating two identical objects in Trial 1 (FIG. 16A)", "setting": "PCP-treated rats; CBDV 2, 10 or 20 mg/kg i.p. 60 min prior to testing", "value": "no real preference"}, {"measurement": "discrimination between familiar and novel objects, Trial 2 (FIG. 16B)", "setting": "PCP-treated rats; CBDV 10 and 20 mg/kg i.p., PCP treated rats", "value": "reverse the cognitive dysfunction"}]}]}
